Test results taken from PubChem BioAssay (NCI).
Values joined by “and” are separate entries in the source; they are usually repeats but may differ in a detail not shown here. Equal values may be shown once.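 Test compounds were applied to cells in 96-well plates for 48 hours at 5 doses. GI50 marks 50% less growth. TGI is the concentration that stops growth completely.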

Assays:
Experiment in all cases: NCI-60 cell line screen, 48 h
HCC-2998 colon = system: HCC-2998 colon
SW-620 colon = system: SW-620 colon
SF-268 CNS = system: SF-268 CNS
SF-539 CNS = system: SF-539 CNS
COLO 205 colon = system: COLO 205 colon
TK-10 renal = system: TK-10 renal
A549 NSCLC = system: A549 NSCLC
BT-549 breast = system: BT-549 breast
EKVX NSCLC = system: EKVX NSCLC
MALME-3M melanoma = system: MALME-3M melanoma

| Compound | GI50 (HCC-2998 colon) | TGI (HCC-2998 colon) | GI50 (SW-620 colon) | TGI (SW-620 colon) | GI50 (SF-268 CNS) | TGI (SF-268 CNS) | GI50 (SF-539 CNS) | TGI (SF-539 CNS) | GI50 (COLO 205 colon) | TGI (COLO 205 colon) | GI50 (TK-10 renal) | TGI (TK-10 renal) | GI50 (A549 NSCLC) | TGI (A549 NSCLC) | GI50 (BT-549 breast) | TGI (BT-549 breast) | GI50 (EKVX NSCLC) | TGI (EKVX NSCLC) | GI50 (MALME-3M melanoma) | TGI (MALME-3M melanoma) |
| --- | --- | --- | --- | --- | --- | --- | --- | --- | --- | --- | --- | --- | --- | --- | --- | --- | --- | --- | --- | --- |
| Cc1cccc(Cc2cnc(NC(=O)CCCOc3ccc(Cl)cc3)s2)c1 | 9.46 µM | > 100 µM | 3.39 µM | > 100 µM | > 100 µM | > 100 µM | 5.13 µM | > 100 µM | 4.46 µM | > 100 µM | > 100 µM | > 100 µM | 3.94 µM | > 100 µM | > 100 µM | > 100 µM | 45 µM | > 100 µM | 5.38 µM | > 100 µM |
| Cn1c(=O)c(-c2c(Cl)cccc2Cl)cc2cnc(Nc3ccc(N4CCOCC4)cc3)nc21 | 0.0431 µM | 0.209 µM | 0.202 µM | > 100 µM | 0.391 µM | > 27.9 µM | < 0.0451 µM | 0.113 µM | < 0.0125 µM | 0.477 µM | – | 1.24 µM | 0.666 µM | – | 0.109 µM | – | 0.798 µM | > 30.9 µM | 0.0196 µM | 0.491 µM |
| O=C(/C=C/N1CCN(c2cccc(Cl)c2)CC1)c1ccc(Cl)cc1 | 24.9 µM | 50.5 µM | 30 µM | 99.3 µM | 19.8 µM | 53.2 µM | 22.8 µM | 47.7 µM | 36.2 µM | > 100 µM | 30.8 µM | > 100 µM | 31.9 µM | > 100 µM | 19.3 µM | 50.2 µM | 25.9 µM | 85.3 µM | 4.89 µM | 26.4 µM |
| CCn1c(SC)nnc1-c1cc2c([nH]c3ccccc32)c(-c2cccc(O)c2)n1 | 4.94 µM | 62.3 µM | 1.44 µM | > 100 µM | 3.42 µM | 25.5 µM | 1.46 µM | 3.74 µM | 9.49 µM | 27.5 µM | 2.68 µM | 13.1 µM | 3.61 µM | 62.9 µM | 1.68 µM | 6.31 µM | 3.02 µM | 26.2 µM | 1.37 µM | 9.58 µM |
| O=C(COC(=O)[C@H](C[Se][Se]C[C@H](NC(=O)c1ccc(Br)cc1F)C(=O)OCC(=O)c1ccc(F)cc1)NC(=O)c1ccc(Br)cc1F)c1ccc(F)cc1 | 1.39 µM | 3.56 µM | 0.878 µM | 2.43 µM | 0.52 µM | 1.18 µM | 0.684 µM | 1.8 µM | 1.67 µM | 3.95 µM | 0.341 µM | 0.9 µM | 1.03 µM | 4.45 µM | 0.603 µM | 1.31 µM | 0.517 µM | 1.52 µM | 0.639 µM | 1.64 µM |
| COc1cc(COC(=O)NC(Cc2cccs2)C(=O)O)c([N+](=O)[O-])cc1OC (centres undefined) | – | > 100 µM | – | > 100 µM | – | > 100 µM | – | > 100 µM | – | > 100 µM | – | > 100 µM | – | > 100 µM | – | > 100 µM | – | > 100 µM | – | > 100 µM |
| O=C1C(=O)c2c(ccc3ccccc23)-c2ccccc21 | 2.65 µM | 7.75 µM | 1.96 µM | 4.23 µM | 1.77 µM | 5.73 µM | 1.89 µM | 4.07 µM | 2.24 µM | 6.55 µM | 2.17 µM | 7.54 µM | 2.83 µM | 8.3 µM | 2.05 µM | 4.62 µM | 1.98 µM | 5.39 µM | 1.63 µM | 3.44 µM |
| CC(C)(CCc1nc2ccccc2[nH]1)C(=O)O | – | > 100 µM | – | > 100 µM | – | > 100 µM | – | > 100 µM | – | > 100 µM | – | > 100 µM | – | > 100 µM | – | > 100 µM | – | > 100 µM | – | > 100 µM |
| COc1cc2nccc(Oc3ccc(NC(=O)C4(C(=O)Nc5ccc(F)cc5)CC4)cc3)c2cc1OC | > 10 µM and 6.29 µM | > 100 µM | 9.09 µM and 2.38 µM | > 34.5 µM | > 10 µM and 4.54 µM | > 100 µM | 1.13 µM and 1.42 µM | > 10 µM and 12.2 µM | 6 µM and 2.1 µM | > 10 µM and 4.63 µM | > 10 µM and 3.76 µM | > 10 µM and 39.5 µM | > 10 µM and 3.55 µM | > 61.4 µM | > 10 µM and 8.8 µM | > 10 µM and 72.4 µM | > 10 µM and 6.98 µM | > 10 µM and 97.3 µM | > 10 µM and 2.11 µM | > 10 µM and 9.17 µM |
| O=C(c1ccccc1)c1ccc(N2C(=O)C3C4c5ccccc5C(/C=C/C(=O)c5ccccn5)(c5ccccc54)C3C2=O)cc1 (centres undefined) | 1.72 µM | 3.34 µM | 2.82 µM | > 100 µM | > 23.1 µM | > 100 µM | 2.07 µM | 4.91 µM | 3.72 µM | 20.8 µM | 6.68 µM | > 100 µM | 2.87 µM | > 100 µM | 2.62 µM | 9.88 µM | 3.02 µM | 39 µM | 2.33 µM | 6.48 µM |
| O=C1COc2c(CCNCCN(C(=O)CCNCCc3ccc(Cl)c(Cl)c3)C3CCCCC3)ccc(O)c2N1 | 18.7 µM | 35.1 µM | 16 µM | 31 µM | 14.7 µM | 30.3 µM | 15.1 µM | 29.7 µM | 14.8 µM | 32.3 µM | 14.1 µM | 28.8 µM | 21.8 µM | 44.8 µM | 14.3 µM | 29 µM | 15.4 µM | 30 µM | 21.9 µM | 39.6 µM |
| Nc1ccc(N)c2c1C(=O)c1cccc([N+](=O)[O-])c1C2=O | 0.373 µM | 1.49 µM | 2.41 µM | > 100 µM | 5.07 µM | > 89.4 µM | 1.92 µM | > 22.4 µM | 4.17 µM | > 55.4 µM | 3.21 µM | > 71.8 µM | 1.47 µM | – | 2.54 µM | > 31.2 µM | 7.72 µM | > 100 µM | 5.69 µM | > 100 µM |
| COC(=O)c1ccccc1NCc1cc(O)ccc1O | – | > 55.7 µM | – | 52 µM | – | > 77.4 µM | – | 34.9 µM | – | 34 µM | – | > 57.6 µM | – | > 83.1 µM | – | 15 µM | – | > 68.1 µM | – | 36.3 µM |
| Cc1c(N)nc(C2CC(=O)N2CC(N)C(N)=O)nc1C(=O)NC(C(=O)NC(C)C(O)C(C)C(=O)NC(C(=O)NCCc1nc(-c2nc(C(=O)NCCNCC(C)O)cs2)cs1)C(C)O)C(OC1OC(CO)C(O)C(O)C1OC1OC(CO)C(O)C(OC(N)=O)C1O)c1cnc[nH]1 (centres undefined) | – | > 100 µM | > 50 µM | > 50 µM | 1.69 µM | 32.6 µM and > 23.2 µM | 0.0499 µM | 1.32 µM and 0.255 µM | 33.6 µM | 50 µM and 36.6 µM | 11.1 µM | 50 µM and > 100 µM | 4.68 µM | 50 µM and > 100 µM | – | > 50 µM | > 50 µM | > 88.9 µM | 1.16 µM | 22.5 µM and 11.9 µM |
| COC(=O)/C(=C/c1ccc(OC)cc1)c1cc(OC)c(OC)c(OC)c1 | – | > 59 µM | – | > 100 µM | – | > 79.1 µM | – | 6.96 µM | – | 13.7 µM | – | > 100 µM | – | > 100 µM | – | > 100 µM | – | > 100 µM | – | > 100 µM |
| O=C1OC(c2ccccc2)=N/C1=C\c1ccc(N(CCCl)CCCl)cc1 | – | > 100 µM | – | > 100 µM | – | > 100 µM | – | > 100 µM | – | > 100 µM | – | > 100 µM | – | > 100 µM | – | > 100 µM | – | > 100 µM | – | > 100 µM |
| COc1ccc(-c2ccc(/C=N/n3c(COc4ccc(Cl)c(C)c4)nn(CN4CCOCC4)c3=S)o2)c([N+](=O)[O-])c1 | 16.5 µM | 32.5 µM | 19.9 µM | 48.9 µM | 33.8 µM | > 100 µM | 22 µM | 53.9 µM | 39.8 µM | > 100 µM | 16.5 µM | 50.5 µM | 19.3 µM | 96.8 µM | 34.6 µM | 85 µM | 26.4 µM | > 100 µM | 17.9 µM | 43.1 µM |
| COc1ccc(Cl)cc1Nc1nc(C(F)(F)F)ccc1C(=O)N/N=C/c1ccc(Cl)cc1 | 2.67 µM | > 100 µM | 8.2 µM | > 100 µM | 1.96 µM | 27.9 µM | 6.63 µM | 27.5 µM | 2.76 µM | > 100 µM | 0.513 µM | 16.8 µM | 37.7 µM | > 100 µM | 0.108 µM | 0.932 µM | 4.45 µM | > 100 µM | 1.36 µM | 9.2 µM |
| CCNc1nc(-c2ccc(Cl)c(OC)c2)c(-c2ccnc(NCCNS(=O)(=O)c3ccc(Cl)cc3)n2)s1 | 4.97 µM | > 100 µM | 4.22 µM | > 100 µM | 4.03 µM | > 100 µM | 2.51 µM | 6.63 µM | 2.32 µM | 6.61 µM | 4.09 µM | 41.8 µM | 3.57 µM | 53.6 µM | 3.09 µM | 38 µM | 3.74 µM | > 100 µM | 2.2 µM | 7.39 µM |
| CC(C)c1nc(Cl)c(Cl)c(Cl)n1 | – | 15.7 µM | – | 15.6 µM | – | 9.29 µM | – | 25.2 µM | – | 11.9 µM | – | 28.8 µM | – | > 41.3 µM | – | 27.1 µM | – | 29.1 µM | – | 19 µM |
